From patent US5455222A, “1-substituted-5-thiomethylthiocyanato-1H-tetrazoles, compositions containing them and their use as antimicrobial and marine antifouling agents” (The Dow Chemical Company, priority 1994, dated 1995)
In brackets after ≈: the same amount, converted by molar mass.

Columns and labels:
[1] = test system: Penicillium chrysogenum (Pc); experiment: Minimum inhibitory concentration (MIC), yeast/fungi in malt yeast agar; assay type: cell-based, Penicillium chrysogenum ATCC 9480; conditions: 30° C., 72 hours for fungi
Description: (§1) The minimum inhibitory concentration (MIC) for the compounds listed in Table I is determined for 9 bacteria, using nutrient agar, and 7 yeast and fungi, using malt yeast agar. A one percent solution of the test compound is prepared in a mixture of acetone and water.
(§2) Malt yeast agar is prepared by adding 3 g yeast extract and 45 g malt agar per liter of deionized water. The specific agar is dispensed in 30 mL aliquots into 25×200 mm test tubes, capped and autoclaved for 15 minutes at 115° C.
(§3) The test tubes containing the agar are cooled in a water bath until the temperature of the agar is 48° C. Then, an appropriate amount of the one percent solution of the test compound is added (except in the controls where no compound is added) to the respective test tubes so that the final concentrations are 500, 250, 100, 50, 25, 10, 5, 2.5, 1.0 and zero parts per million of the test compound in the agar, thus having a known concentration of test compound dispersed therein. The contents of the test tubes are then transferred to respective petri plates. After drying for 24 hours, the petri plates containing nutrient agar are inoculated with bacteria and those containing malt yeast agar are inoculated with yeast and fungi.
(§4) The inoculation with the yeast and fungi is accomplished as follows. Cultures of yeast and fungi are incubated for seven days on malt yeast agar at 30° C. These cultures are used to prepare suspensions by the following procedure. A suspension of each organism is prepared by adding 10 mL of sterile saline and 10 microliters of octylphenoxy polyethoxy ethanol to the agar slant of yeast or fungi. The sterile saline/octylphenoxy polyethoxy ethanol solution is then agitated with a sterile swab to suspend the microorganism grown on the slant. Each resulting suspension is diluted into sterile saline (1 part suspension to 9 parts sterile saline). Aliquots of these dilutions are placed in individual wells of Steer's Replicator and petri plates inoculated as previously described. The petri plates are incubated at 30° C. and read after 48 hours for yeast and 72 hours for fungi.
(§5) Table II lists the bacteria, yeast and fungi used in the MIC test described above along with their respective American Type Culture Collection (ATCC) identification numbers.
(§6) In Tables III and IV, the MIC values of the compounds described in Table I as compared to the MIC of a standard commercial preservative (with 1-(3-chloroallyl)-3,5,7-triaza-1-azoniaadamantane chloride as the active agent and referred to in Tables III and IV as "STANDARD I") are set forth for the bacteria organisms and yeast/fungi organisms which are listed in Table II.

[2] = test system: Bacillus subtilis (Bs); experiment: Minimum inhibitory concentration (MIC), bacteria in nutrient agar; assay type: cell-based, Bacillus subtilis ATCC 8473; conditions: 48 hours
Description: as §1
(§7) Nutrient agar is prepared at pH 6.8, representing a neutral medium, and at pH 8.2, representing an alkaline medium. The nutrient agars are prepared by adding 23 g of nutrient agar to one liter of deionized water. In addition, the alkaline medium is prepared by adjusting a 0.04M solution of N-[tris-(hydroxymethyl)methyl]glycine buffered deionized water with concentrated sodium hydroxide to a pH of 8.5.
as §3
(§8) The inoculation with bacteria is accomplished by using the following procedure. Twenty-four hour-cultures of each of the bacteria are prepared by incubating the respective bacteria in tubes containing nutrient broth for 24 hours at 30° C. in a shaker. Dilutions of each of the 24 hour-cultures are made so that nine separate suspensions (one for each of the nine test bacteria) are made, each containing 10^8 colony forming units (CFU) per mL of suspension of a particular bacteria. Aliquots of 0.3 mL of each of the bacterial suspensions are used to fill the individual wells of Steer's Replicator. For each microbial suspension, 0.3 mL was used to fill three wells (i.e., three wells of 0.3 mL each) so that for the nine different bacteria, 27 wells are filled. The Steer's Replicator is then used to inoculate both the neutral and alkaline pH nutrient agar petri plates.
(§9) The inoculated petri plates are incubated at 30° C. for 48 hours and then read to determine if the test compound which is incorporated into the agar prevented growth of the respective bacteria.
as §5, §6

[3] = test system: Pseudomonas aeruginosa (PRD-10); experiment: as above; assay type: cell-based, Pseudomonas aeruginosa ATCC 15442; conditions: 48 hours
Description: as §1, §7, §3, §8, §9, §5, §6

[4] = test system: Salmonella choleraesuis (Sc); experiment: as above; assay type: cell-based, Salmonella choleraesuis ATCC 10708; conditions: Salmonella enterica, 48 hours
Description: as §1, §7, §3, §8, §9, §5, §6

[5] = test system: Pseudomonas aeruginosa (Pa); experiment: as above; assay type: cell-based, Pseudomonas aeruginosa ATCC 10145; conditions: 48 hours
Description: as §1, §7, §3, §8, §9, §5, §6

[6] = test system: Staphylococcus aureus (Sa); experiment: as above; assay type: cell-based, Staphylococcus aureus ATCC 6538; conditions: 48 hours
Description: as §1, §7, §3, §8, §9, §5, §6

[7] = test system: Escherichia coli (Ec); experiment: as above; assay type: cell-based, Escherichia coli ATCC 11229; conditions: 48 hours
Description: as §1, §7, §3, §8, §9, §5, §6

[8] = test system: Proteus vulgaris (Pv); experiment: as above; assay type: cell-based, Proteus vulgaris ATCC 881; conditions: 48 hours
Description: as §1, §7, §3, §8, §9, §5, §6

[9] = test system: Trichoderma viride (Tv); experiment: Minimum inhibitory concentration (MIC), yeast/fungi in malt yeast agar; assay type: cell-based, Trichoderma viride ATCC 8678; conditions: 30° C., 72 hours for fungi
Description: as §1, §2, §3, §4, §5, §6

[10] = test system: Fusarium oxysporum (Fo); experiment: as above; assay type: cell-based, Fusarium oxysporum ATCC 48112; conditions: 30° C., 72 hours for fungi
Description: as §1, §2, §3, §4, §5, §6

[11] = test system: Aspergillus niger (An); experiment: as above; assay type: cell-based, Aspergillus niger ATCC 16404; conditions: 30° C., 72 hours for fungi
Description: as §1, §2, §3, §4, §5, §6

[12] = test system: Klebsiella pneumoniae (Kp); experiment: Minimum inhibitory concentration (MIC), bacteria in nutrient agar; assay type: cell-based, Klebsiella pneumoniae ATCC 8308; conditions: 48 hours
Description: as §1, §7, §3, §8, §9, §5, §6

[13] = test system: Enterobacter aerogenes (Ea); experiment: as above; assay type: cell-based, Enterobacter aerogenes ATCC 13048; conditions: Klebsiella aerogenes, 48 hours
Description: as §1, §7, §3, §8, §9, §5, §6

[14] = test system: Saccharomyces cerevisiae (Sc); experiment: Minimum inhibitory concentration (MIC), yeast/fungi in malt yeast agar; assay type: cell-based, Saccharomyces cerevisiae ATCC 4105; conditions: 30° C., 48 hours for yeast
Description: as §1, §2, §3, §4, §5, §6

[15] = test system: Candida albicans (Ca); experiment: as above; assay type: cell-based, Candida albicans ATCC 10231; conditions: 30° C., 48 hours for yeast
Description: as §1, §2, §3, §4, §5, §6

[16] = test system: Aureobasidium pullulan (Ap); experiment: as above; assay type: cell-based, Aureobasidium pullulan ATCC 16622; conditions: 30° C., read after 48 hours for yeast and 72 hours for fungi
Description: as §1, §2, §3, §4, §5, §6

N#CSCSc1nnnn1-c1ccc([N+](=O)[O-])cc1 [XI, 1-(4-Nitrophenyl)-5-thiomethylthiocyanato-1H-tetrazole]
MIC [1]: < 2.5 µg/mL
MIC ([2]; nutrient agar pH 6.8, 30° C.): > 100 µg/mL
MIC ([2]; nutrient agar pH 8.2, 30° C.): > 100 µg/mL
MIC ([3]; nutrient agar pH 6.8, 30° C.): > 100 µg/mL
MIC ([3]; nutrient agar pH 8.2, 30° C.): > 100 µg/mL
MIC ([4]; nutrient agar pH 6.8, 30° C.): > 100 µg/mL
MIC ([4]; nutrient agar pH 8.2, 30° C.): > 100 µg/mL
MIC ([5]; nutrient agar pH 6.8, 30° C.): > 100 µg/mL
MIC ([5]; nutrient agar pH 8.2, 30° C.): > 100 µg/mL
MIC ([6]; nutrient agar pH 6.8, 30° C.): 100 µg/mL (≈ 340 µM)
MIC ([6]; nutrient agar pH 8.2, 30° C.): 50 µg/mL (≈ 170 µM)
MIC ([7]; nutrient agar pH 6.8, 30° C.): > 100 µg/mL
MIC ([7]; nutrient agar pH 8.2, 30° C.): > 100 µg/mL
MIC ([8]; nutrient agar pH 6.8, 30° C.): < 100 µg/mL
MIC ([8]; nutrient agar pH 8.2, 30° C.): > 100 µg/mL
MIC [9]: 25 µg/mL (≈ 84.9 µM)
MIC [10]: 25 µg/mL (≈ 84.9 µM)
MIC [11]: 5 µg/mL (≈ 17 µM)
MIC ([12]; nutrient agar pH 6.8, 30° C.): < 100 µg/mL
MIC ([12]; nutrient agar pH 8.2, 30° C.): > 100 µg/mL
MIC ([13]; nutrient agar pH 6.8, 30° C.): > 100 µg/mL
MIC ([13]; nutrient agar pH 8.2, 30° C.): > 100 µg/mL
MIC [14]: 10 µg/mL (≈ 34 µM)
MIC [15]: 100 µg/mL (≈ 340 µM)
MIC [16]: 10 µg/mL (≈ 34 µM)

COc1ccc(-n2nnnc2SCSC#N)cc1 [VIII, 1-(4-Methoxyphenyl)-5-thiomethylthiocyanato-1 H-tetrazole]
MIC [1]: < 10 µg/mL
MIC ([2]; nutrient agar pH 6.8, 30° C.): < 10 µg/mL
MIC ([2]; nutrient agar pH 8.2, 30° C.): 25 µg/mL (≈ 89.5 µM)
MIC ([3]; nutrient agar pH 6.8, 30° C.): 100 µg/mL (≈ 358 µM)
MIC ([3]; nutrient agar pH 8.2, 30° C.): 500 µg/mL (≈ 1790 µM)
MIC ([4]; nutrient agar pH 6.8, 30° C.): 250 µg/mL (≈ 895 µM)
MIC ([4]; nutrient agar pH 8.2, 30° C.): 500 µg/mL (≈ 1790 µM)
MIC ([5]; nutrient agar pH 8.2, 30° C.): 100 µg/mL (≈ 358 µM)
MIC ([6]; nutrient agar pH 6.8, 30° C.): 25 µg/mL (≈ 89.5 µM)
MIC ([6]; nutrient agar pH 8.2, 30° C.): 100 µg/mL (≈ 358 µM)
MIC ([7]; nutrient agar pH 6.8, 30° C.): 100 µg/mL (≈ 358 µM)
MIC ([7]; nutrient agar pH 8.2, 30° C.): 500 µg/mL (≈ 1790 µM)
MIC ([8]; nutrient agar pH 6.8, 30° C.): 250 µg/mL (≈ 895 µM)
MIC ([8]; nutrient agar pH 8.2, 30° C.): 500 µg/mL (≈ 1790 µM)
MIC [9]: 25 µg/mL (≈ 89.5 µM)
MIC [10]: < 10 µg/mL
MIC [11]: < 10 µg/mL
MIC ([12]; nutrient agar pH 6.8, 30° C.): 250 µg/mL (≈ 895 µM)
MIC ([12]; nutrient agar pH 8.2, 30° C.): 100 µg/mL (≈ 358 µM)
MIC ([13]; nutrient agar pH 6.8, 30° C.): 250 µg/mL (≈ 895 µM)
MIC ([13]; nutrient agar pH 8.2, 30° C.): 500 µg/mL (≈ 1790 µM)
MIC [14]: < 10 µg/mL
MIC [15]: 25 µg/mL (≈ 89.5 µM)
MIC [16]: < 10 µg/mL

N#CSCSc1nnnn1-c1ccc(F)cc1 [V, 1-(4-Fluorophenyl)-5-thiomethylthiocyanato-1H-tetrazole]
MIC [1]: 2.5 µg/mL (≈ 9.35 µM)
MIC ([2]; nutrient agar pH 6.8, 30° C.): < 10 µg/mL
MIC ([2]; nutrient agar pH 8.2, 30° C.): 50 µg/mL (≈ 187 µM)
MIC ([3]; nutrient agar pH 6.8, 30° C.): 50 µg/mL (≈ 187 µM)
MIC ([3]; nutrient agar pH 8.2, 30° C.): 100 µg/mL (≈ 374 µM)
MIC ([4]; nutrient agar pH 6.8, 30° C.): 100 µg/mL (≈ 374 µM)
MIC ([4]; nutrient agar pH 8.2, 30° C.): 250 µg/mL (≈ 935 µM)
MIC ([6]; nutrient agar pH 6.8, 30° C.): 25 µg/mL (≈ 93.5 µM)
MIC ([6]; nutrient agar pH 8.2, 30° C.): 50 µg/mL (≈ 187 µM)
MIC ([7]; nutrient agar pH 6.8, 30° C.): 100 µg/mL (≈ 374 µM)
MIC ([7]; nutrient agar pH 8.2, 30° C.): 500 µg/mL (≈ 1870 µM)
MIC ([8]; nutrient agar pH 6.8, 30° C.): 50 µg/mL (≈ 187 µM)
MIC ([8]; nutrient agar pH 8.2, 30° C.): 250 µg/mL (≈ 935 µM)
MIC [9]: 25 µg/mL (≈ 93.5 µM)
MIC [10]: 5 µg/mL (≈ 18.7 µM)
MIC [11]: 5 µg/mL (≈ 18.7 µM)
MIC ([12]; nutrient agar pH 6.8, 30° C.): 100 µg/mL (≈ 374 µM)
MIC ([12]; nutrient agar pH 8.2, 30° C.): 250 µg/mL (≈ 935 µM)
MIC ([13]; nutrient agar pH 6.8, 30° C.): 250 µg/mL (≈ 935 µM)
MIC ([13]; nutrient agar pH 8.2, 30° C.): 500 µg/mL (≈ 1870 µM)
MIC [14]: 5 µg/mL (≈ 18.7 µM)
MIC [15]: 25 µg/mL (≈ 93.5 µM)
MIC [16]: 2.5 µg/mL (≈ 9.35 µM)
